Data reported in patent US10577317B2, “Crystal forms and production methods thereof” (Sunovion Pharmaceuticals Inc., priority 2017, dated 2020).
Where two headings read alike, the source gives them in different places.

Assays:
Assay type in all cases: physicochemical
[1] = Solubility (mg/mL) in water, buffers, simulated fluids and organic solvents (Table 1)
[2] = DVS water sorption isotherm, 25° C. scanned over 0 to 95% relative humidity (hygroscopicity)
Source text: In various embodiments, the hygroscopicity of crystal forms of racemic amisulpride, enantiomeric amisulpride, and enantiomeric amisulpride solvates are characterized by dynamic vapor sorption (DVS). DVS is a gravimetric technique that measures how much of a solvent is absorbed by a sample by varying the vapor concentration surrounding the sample (e.g., relative humidity) and measuring the change in mass. In the present application, DVS is used to generate water sorption isotherms, which represent the equilibrium amount of vapor sorbed as a function of steady state relative vapor pressure at a constant temperature.

[3] = Solid form stability on storage at 25° C. and 60% relative humidity; conditions: after 4 months at 25° C. and 60% relative humidity (RH)
[4] = DVS, 25° C., 0 to 95% relative humidity

solubility ([1]; aqueous buffer, 0.05M Acetate Buffer, solution pH 4.5, read-out: Solubility (mg/mL): 0.05M Acetate Buffer): > 100 mg/mL
solubility ([1]; pH 1.1, Simulated Gastric Fluid (no enzyme), pH adjusted to 1.1 (Form A), 1.2 (Form A′), read-out: Solubility (mg/mL): Simulated Gastric Fluid (no enzyme)): > 100 mg/mL
solubility ([1]; pH 6.7, fassgf or other biorelevant, Simulated Intestinal Fluid (no enzyme), pH adjusted to 6.7 (Form A), 6.9 (Form A′), read-out: Solubility (mg/mL): Simulated Intestinal Fluid (no enzyme)): > 100 mg/mL
maximum mass change in water sorption isotherms [2, 4]: 0.183%
average maximum mass change ([2]; DVS, average over the samples of Tables 6A-6C (Form A′) or 6D-6E (Form A)): about 0.17%
Change Mass ([2]; FIG. 2D, RH 1.28 %, elapse time 173.0 min): 0.000 wt %
Change Mass ([2]; FIG. 2D, RH 5.03 %, elapse time 515.4 min): 0.004 wt %
Change Mass ([2]; FIG. 2D, RH 5.05 %, elapse time 854.6 min): 0.008 wt %
Change Mass ([2]; FIG. 2D, RH 5.19 %, elapse time 181.6 min): 0.004 wt %
Change Mass ([2]; FIG. 2D, RH 9.87 %, elapse time 523.4 min): 0.008 wt %
Change Mass ([2]; FIG. 2D, RH 10.07 %, elapse time 189.1 min): 0.010 wt %
Change Mass ([2]; FIG. 2D, RH 10.08 %, elapse time 507.4 min): 0.010 wt %
Change Mass ([2]; FIG. 2D, RH 10.10 %, elapse time 846.6 min): 0.014 wt %
Change Mass ([2]; FIG. 2D, RH 14.89 %, elapse time 531.4 min): 0.014 wt %
Change Mass ([2]; FIG. 2D, RH 14.91 %, elapse time 196.6 min): 0.017 wt %
Change Mass ([2]; FIG. 2D, RH 15.10 %, elapse time 499.4 min): 0.017 wt %
Change Mass ([2]; FIG. 2D, RH 15.15 %, elapse time 838.6 min): 0.021 wt %
Change Mass ([2]; FIG. 2D, RH 19.83 %, elapse time 204.6 min): 0.024 wt %
Change Mass ([2]; FIG. 2D, RH 19.90 %, elapse time 539.4 min): 0.020 wt %
Change Mass ([2]; FIG. 2D, RH 20.10 %, elapse time 491.4 min): 0.023 wt %
Change Mass ([2]; FIG. 2D, RH 20.13 %, elapse time 830.5 min): 0.028 wt %
Change Mass ([2]; FIG. 2D, RH 24.87 %, elapse time 548.4 min): 0.027 wt %
Change Mass ([2]; FIG. 2D, RH 24.89 %, elapse time 483.4 min): 0.029 wt %
Change Mass ([2]; FIG. 2D, RH 24.93 %, elapse time 822.5 min): 0.033 wt %
Change Mass ([2]; FIG. 2D, RH 24.98 %, elapse time 213.7 min): 0.031 wt %
Change Mass ([2]; FIG. 2D, RH 29.88 %, elapse time 222.7 min): 0.039 wt %
Change Mass ([2]; FIG. 2D, RH 29.89 %, elapse time 557.4 min): 0.034 wt %
Change Mass ([2]; FIG. 2D, RH 30.13 %, elapse time 475.9 min): 0.036 wt %
Change Mass ([2]; FIG. 2D, RH 30.15 %, elapse time 815.0 min): 0.040 wt %
Change Mass ([2]; FIG. 2D, RH 34.83 %, elapse time 566.4 min): 0.042 wt %
Change Mass ([2]; FIG. 2D, RH 34.93 %, elapse time 467.4 min): 0.043 wt %
Change Mass ([2]; FIG. 2D, RH 34.94 %, elapse time 806.5 min): 0.046 wt %
Change Mass ([2]; FIG. 2D, RH 34.97 %, elapse time 231.7 min): 0.046 wt %
Change Mass ([2]; FIG. 2D, RH 39.80 %, elapse time 240.7 min): 0.054 wt %
Change Mass ([2]; FIG. 2D, RH 39.88 %, elapse time 457.4 min): 0.050 wt %
Change Mass ([2]; FIG. 2D, RH 39.95 %, elapse time 796.5 min): 0.053 wt %
Change Mass ([2]; FIG. 2D, RH 39.99 %, elapse time 577.4 min): 0.049 wt %
Change Mass ([2]; FIG. 2D, RH 44.82 %, elapse time 249.7 min): 0.061 wt %
Change Mass ([2]; FIG. 2D, RH 44.93 %, elapse time 586.4 min): 0.056 wt %
Change Mass ([2]; FIG. 2D, RH 45.05 %, elapse time 786.5 min): 0.060 wt %
Change Mass ([2]; FIG. 2D, RH 45.17 %, elapse time 447.9 min): 0.058 wt %
Change Mass ([2]; FIG. 2D, RH 49.96 %, elapse time 597.5 min): 0.063 wt %
Change Mass ([2]; FIG. 2D, RH 49.98 %, elapse time 258.7 min): 0.068 wt %
Change Mass ([2]; FIG. 2D, RH 50.04 %, elapse time 775.5 min): 0.067 wt %
Change Mass ([2]; FIG. 2D, RH 50.07 %, elapse time 438.8 min): 0.065 wt %
Change Mass ([2]; FIG. 2D, RH 54.98 %, elapse time 606.5 min): 0.070 wt %
Change Mass ([2]; FIG. 2D, RH 55.01 %, elapse time 269.7 min): 0.076 wt %
Change Mass ([2]; FIG. 2D, RH 55.07 %, elapse time 427.8 min): 0.073 wt %
Change Mass ([2]; FIG. 2D, RH 55.14 %, elapse time 764.5 min): 0.074 wt %
Change Mass ([2]; FIG. 2D, RH 59.95 %, elapse time 278.7 min): 0.084 wt %
Change Mass ([2]; FIG. 2D, RH 59.95 %, elapse time 617.5 min): 0.078 wt %
Change Mass ([2]; FIG. 2D, RH 60.08 %, elapse time 416.8 min): 0.081 wt %
Change Mass ([2]; FIG. 2D, RH 60.16 %, elapse time 753.5 min): 0.082 wt %
Change Mass ([2]; FIG. 2D, RH 64.91 %, elapse time 628.5 min): 0.086 wt %
Change Mass ([2]; FIG. 2D, RH 64.92 %, elapse time 289.7 min): 0.091 wt %
Change Mass ([2]; FIG. 2D, RH 65.11 %, elapse time 742.5 min): 0.090 wt %
Change Mass ([2]; FIG. 2D, RH 65.16 %, elapse time 405.8 min): 0.090 wt %
Change Mass ([2]; FIG. 2D, RH 69.88 %, elapse time 300.7 min): 0.099 wt %
Change Mass ([2]; FIG. 2D, RH 69.98 %, elapse time 639.5 min): 0.094 wt %
Change Mass ([2]; FIG. 2D, RH 70.09 %, elapse time 394.8 min): 0.099 wt %
Change Mass ([2]; FIG. 2D, RH 70.18 %, elapse time 731.5 min): 0.098 wt %
Change Mass ([2]; FIG. 2D, RH 74.63 %, elapse time 648.5 min): 0.103 wt %
Change Mass ([2]; FIG. 2D, RH 74.64 %, elapse time 309.7 min): 0.108 wt %
Change Mass ([2]; FIG. 2D, RH 75.39 %, elapse time 383.8 min): 0.109 wt %
Change Mass ([2]; FIG. 2D, RH 75.48 %, elapse time 720.5 min): 0.109 wt %
Change Mass ([2]; FIG. 2D, RH 79.56 %, elapse time 318.7 min): 0.119 wt %
Change Mass ([2]; FIG. 2D, RH 79.66 %, elapse time 657.5 min): 0.113 wt %
Change Mass ([2]; FIG. 2D, RH 80.45 %, elapse time 374.8 min): 0.124 wt %
Change Mass ([2]; FIG. 2D, RH 80.45 %, elapse time 711.5 min): 0.123 wt %
Change Mass ([2]; FIG. 2D, RH 84.45 %, elapse time 666.5 min): 0.128 wt %
Change Mass ([2]; FIG. 2D, RH 84.52 %, elapse time 327.8 min): 0.134 wt %
Change Mass ([2]; FIG. 2D, RH 85.43 %, elapse time 702.5 min): 0.152 wt %
Change Mass ([2]; FIG. 2D, RH 85.47 %, elapse time 365.8 min): 0.155 wt %
Change Mass ([2]; FIG. 2D, RH 89.51 %, elapse time 336.8 min): 0.152 wt %
Change Mass ([2]; FIG. 2D, RH 89.63 %, elapse time 675.5 min): 0.147 wt %
Change Mass ([2]; FIG. 2D, RH 90.09 %, elapse time 356.8 min): 0.168 wt %
Change Mass ([2]; FIG. 2D, RH 90.20 %, elapse time 693.5 min): 0.164 wt %
Change Mass ([2]; FIG. 2D, RH 94.80 %, elapse time 347.8 min): 0.183 wt %
Change Mass ([2]; FIG. 2D, RH 94.89 %, elapse time 684.5 min): 0.175 wt %
Change Mass ([2]; FIG. 2E, RH 19.69 %, elapse time 383.8 min): 0.012 wt %
Change Mass ([2]; FIG. 2E, RH 24.95 %, elapse time 392.9 min): 0.018 wt %
Change Mass ([2]; FIG. 2E, RH 29.81 %, elapse time 401.9 min): 0.024 wt %
Change Mass ([2]; FIG. 2E, RH 34.97 %, elapse time 412.9 min): 0.032 wt %
Change Mass ([2]; FIG. 2E, RH 39.81 %, elapse time 421.9 min): 0.038 wt %
Change Mass ([2]; FIG. 2E, RH 44.97 %, elapse time 432.9 min): 0.044 wt %
Change Mass ([2]; FIG. 2E, RH 45.03 %, elapse time 627.0 min): 0.046 wt %
Change Mass ([2]; FIG. 2E, RH 49.81 %, elapse time 441.9 min): 0.051 wt %
Change Mass ([2]; FIG. 2E, RH 50.10 %, elapse time 618.0 min): 0.052 wt %
Change Mass ([2]; FIG. 2E, RH 54.81 %, elapse time 450.9 min): 0.059 wt %
Change Mass ([2]; FIG. 2E, RH 55.04 %, elapse time 609.0 min): 0.059 wt %
Change Mass ([2]; FIG. 2E, RH 59.91 %, elapse time 461.9 min): 0.066 wt %
Change Mass ([2]; FIG. 2E, RH 60.10 %, elapse time 598.0 min): 0.067 wt %
Change Mass ([2]; FIG. 2E, RH 64.88 %, elapse time 472.9 min): 0.074 wt %
Change Mass ([2]; FIG. 2E, RH 65.19 %, elapse time 586.9 min): 0.075 wt %
Change Mass ([2]; FIG. 2E, RH 69.81 %, elapse time 483.9 min): 0.082 wt %
Change Mass ([2]; FIG. 2E, RH 70.16 %, elapse time 575.9 min): 0.083 wt %
Change Mass ([2]; FIG. 2E, RH 74.59 %, elapse time 492.9 min): 0.090 wt %
Change Mass ([2]; FIG. 2E, RH 75.44 %, elapse time 564.9 min): 0.092 wt %
Change Mass ([2]; FIG. 2E, RH 79.63 %, elapse time 501.9 min): 0.100 wt %
Change Mass ([2]; FIG. 2E, RH 80.52 %, elapse time 555.9 min): 0.105 wt %
Change Mass ([2]; FIG. 2E, RH 84.55 %, elapse time 510.9 min): 0.112 wt %
Change Mass ([2]; FIG. 2E, RH 85.39 %, elapse time 546.9 min): 0.126 wt %
Change Mass ([2]; FIG. 2E, RH 89.85 %, elapse time 519.9 min): 0.127 wt %
Change Mass ([2]; FIG. 2E, RH 90.10 %, elapse time 537.9 min): 0.137 wt %
Change Mass ([2]; FIG. 2E, RH 94.52 %, elapse time 528.9 min): 0.149 wt %
Compound: CCN1CCC[C@@H]1CNC(=O)c1cc(S(=O)(=O)CC)c(N)cc1OC [(R)-amisulpride Form A, R-4-Amino-N-[(1-ethyl-2-pyrrolidinyl)methyl]-5-(ethylsulfonyl)-2-methoxybenzamide]
hygroscopicity [2, 4]: substantially non-hygroscopic (less than a 1% maximum mass change in water sorption isotherms, at 25 °C scanned over 0 to 95% relative humidity)
thermodynamic stability of crystal form (conversion to other polymorphs or amorphous form) [3]: not substantially converting to other polymorphs or amorphous form
